Measurements reported in US20250025454A1 (priority 2021, published 2025).
“And” between values parts separate entries of the source, which are not always exact repeats. Equal values may be shown once. “Also recorded” adds a separate entry of the source. Read-outs that look alike come from different tables or passages of the source.

What was measured:
[1] = single oral dose, comparable for all doses; listed as pipendoxifene; cited from earlier work
SARS-CoV-2 = details: 35 compounds tested
[2] = Pharmacokinetics (plasma, lung at 24 h) after single oral dosing in male Sprague-Dawley rats; details: for AUC∞ / t1/2 / Cmax / AUC(0-t) / AUC(0-inf) / Tmax: male SD rat plasma; for AUC(0-t): AUClast
[3] = female, 129/S, mouse, in vivo
[4] = cited from earlier work
in vivo = details: female, 129/S, mouse
[5] = single oral 250 mg/kg (Group 1), individual rats 450, 451, 452, listed as MDL-001, 250 mg/kg
[6] = male, Sprague-Dawley, rat, in vivo, po, 250 mg/kg, single oral 250 mg/kg (Group 1), mean
[7] = male, Sprague-Dawley, rat, in vivo, po, 500 mg/kg, single oral 500 mg/kg (Group 2), individual rats 453, 454, 455
[8] = male, Sprague-Dawley, rat, in vivo, po, 500 mg/kg, single oral 500 mg/kg (Group 2), mean
[9] = male, Sprague-Dawley, rat, in vivo, po, 750 mg/kg, single oral 750 mg/kg (Group 3), individual rats 456, 457, 458
[10] = male, Sprague-Dawley, rat, in vivo, po, 750 mg/kg, single oral 750 mg/kg (Group 3), mean
[11] = male, Sprague-Dawley, rat, in vivo, po, 1000 mg/kg, single oral 1000 mg/kg (Group 4), one outlier excluded, mean

## Cc1c(-c2ccc(O)cc2)n(Cc2ccc(OCCN3CCCCC3)cc2)c2ccc(O)cc12 [Pipendoxifene, 2-(4-hydroxyphenyl)-3-methyl-1-[[4-(2-piperidin-1-ylethoxy)phenyl]methyl]indol-5-ol]
[1]
  t1/2: 30 h
SARS-CoV-2
  activity in the HeLa-ACE2 cell-based SARS-CoV-2 assay: demonstrated activity
[2]; 250 mg/kg
  Lung C24 h over SARS-CoV-2 IC50: 9.7 fold
[2]; 500 mg/kg
  Lung C24 h over SARS-CoV-2 IC50: 13.7 fold
[2]; 1000 mg/kg
  Lung C24 h over SARS-CoV-2 IC50: 40.9 fold
[2]; 6750 mg/kg (so in the source)
  Lung C24 h over SARS-CoV-2 IC50: 13.3 fold
[2]; 'higher dose', sentence in the rat section
  Lung C24 h over SARS-CoV-2 IC50: 5.4 fold
[2]; [5]
  AUC∞: 4132 ng·h/mL and 5119 ng·h/mL and 2549 ng·h/mL
  t1/2: 3.83 h and 8.95 h and 5.42 h
[2]; single oral 250 mg/kg (Group 1), mean, listed as MDL-001, 250 mg/kg
  t1/2: 6.06 h
[2]; single oral 1000 mg/kg (Group 4), one outlier excluded, individual rats 459, 460, 461, listed as MDL-001, 1000 mg/kg
  Cmax: 501 ng/mL
[2]; single oral 1000 mg/kg (Group 4), one outlier excluded, individual rats 459, 460, listed as MDL-001, 1000 mg/kg
  AUC∞: 7888 ng·h/mL
[2]; male SD rat, single PO dose 250-1000 mg/kg, listed as MDL-001
  adverse reactions / tolerability: well tolerated with no adverse clinical signs; also recorded: No adverse reactions were observed
[2]; male, Sprague-Dawley, rat, in vivo, Lung/Plasma C24 h ratios, range, Day 1, across the dose range
  Kp at 24 h: 97 to 122
[2]; male, Sprague-Dawley, rat, in vivo, po, 250 mg/kg, single oral 250 mg/kg (Group 1), individual rats 450, 451, 452
  AUC(0-t): 4040 ng·h/mL
[2]; [6]
  AUC(0-t): 3520 ± 980 ng·h/mL
  AUC(0-inf): 3930 ng·h/mL
  Tmax: 5.33 ± 1.15 h
[2]; male, Sprague-Dawley, rat, in vivo, po, 250 mg/kg, Cmax, single oral 250 mg/kg (Group 1), individual rats 450, 451, 452
  Cmax: 334 ng/mL
[2]; male, Sprague-Dawley, rat, in vivo, po, 250 mg/kg, Cmax, single oral 250 mg/kg (Group 1), mean
  Cmax: 311 ± 42 ng/mL
[2]; male, Sprague-Dawley, rat, in vivo, po, 250 mg/kg, t1/2, male SD rat plasma, single oral 250 mg/kg (Group 1), mean
  half-life: 6.06 ± 2.62 h
[2]; [7]
  AUC(0-t): 5730 ng·h/mL
  AUC(0-inf): 6410 ng·h/mL
  Tmax: 8 h
[2]; [8]
  AUC(0-inf): 5850 ng·h/mL
  Tmax: 6.67 ± 1.15 h
[2]; male, Sprague-Dawley, rat, in vivo, po, 500 mg/kg, t1/2, male SD rat plasma, single oral 500 mg/kg (Group 2), individual rats 453, 454, 455
  half-life: 6.08 h
[2]; male, Sprague-Dawley, rat, in vivo, po, 500 mg/kg, t1/2, male SD rat plasma, single oral 500 mg/kg (Group 2), mean
  half-life: 5.2 ± 1.34 h
[2]; [9]
  AUC(0-t): 7530 ng·h/mL
  AUC(0-inf): 7920 ng·h/mL
  Tmax: 8 h
[2]; [10]
  AUC(0-inf): 5520 ng·h/mL
  Tmax: 6.67 ± 1.15 h
[2]; male, Sprague-Dawley, rat, in vivo, po, 750 mg/kg, Cmax, single oral 750 mg/kg (Group 3), mean
  Cmax: 415 ± 72 ng/mL
[2]; male, Sprague-Dawley, rat, in vivo, po, 750 mg/kg, t1/2, male SD rat plasma, single oral 750 mg/kg (Group 3), individual rats 456, 457, 458
  half-life: 4.77 h
[2]; male, Sprague-Dawley, rat, in vivo, po, 1000 mg/kg
  concentration at 24 h: 13400 ng/g
[2]; male, Sprague-Dawley, rat, in vivo, po, 1000 mg/kg, single oral 1000 mg/kg (Group 4), all data included, mean
  AUC(0-t): 6760 ± 930 ng·h/mL
[2]; male, Sprague-Dawley, rat, in vivo, po, 1000 mg/kg, single oral 1000 mg/kg (Group 4), one outlier excluded, individual rats 459, 460, 461
  AUC(0-t): 3980 ng·h/mL
[2]; [11]
  AUC(0-t): 5710 ± 1730 ng·h/mL
  AUC(0-inf): 6880 ng·h/mL
[2]; male, Sprague-Dawley, rat, in vivo, po, 1000 mg/kg, t1/2, male SD rat plasma, single oral 1000 mg/kg (Group 4), all data included, individual rats 459, 460, 461
  half-life: 4.3 h
[2]; male, Sprague-Dawley, rat, in vivo, po, 1000 mg/kg, t1/2, male SD rat plasma, single oral 1000 mg/kg (Group 4), all data included, mean
  half-life: 4.88 ± 0.5 h
[2]; male, Sprague-Dawley, rat, in vivo, po, 1000 mg/kg, t1/2, male SD rat plasma, single oral 1000 mg/kg (Group 4), one outlier excluded, individual rats 459, 460
  half-life: 4.3 h
[2]; male, Sprague-Dawley, rat, in vivo, po, 1000 mg/kg, t1/2, male SD rat plasma, single oral 1000 mg/kg (Group 4), one outlier excluded, mean
  half-life: 4.73 h
[2]; male, Sprague-Dawley, rat, in vivo, po, plasma t1/2, range, 250-1000 mg/kg single oral dose
  half-life: 4.71 to 6.06 h
[2]; male, Sprague-Dawley, rat, plasma, po, 500 mg/kg, Plasma concentration, male SD rat, single oral 500 mg/kg (Group 2), 2 hr, individual rats 453, 454, 455
  concentration at 2 h: 136 ng/mL
[2]; male, Sprague-Dawley, rat, plasma, po, 500 mg/kg, Plasma concentration, male SD rat, single oral 500 mg/kg (Group 2), 6 hr, individual rats 453, 454, 455
  concentration at 6 h: 428 ng/mL
[2]; male, Sprague-Dawley, rat, plasma, po, 500 mg/kg, Plasma concentration, male SD rat, single oral 500 mg/kg (Group 2), individual rats 453, 454, 455
  concentration at 8 h: 561 ng/mL
[2]; male, Sprague-Dawley, rat, plasma, po, 750 mg/kg, Plasma concentration, male SD rat, single oral 750 mg/kg (Group 3), 6 hr, individual rats 456, 457, 458
  concentration at 6 h: 381 ng/mL
[2]; male, Sprague-Dawley, rat, plasma, po, 750 mg/kg, Plasma concentration, male SD rat, single oral 750 mg/kg (Group 3), individual rats 456, 457, 458
  concentration at 8 h: 497 ng/mL
[2]; male, Sprague-Dawley, rat, plasma, po, 1000 mg/kg, single oral 1000 mg/kg (Group 4), one outlier excluded, individual rats 459, 460, 461
  AUC(0-t): 7440 ng·h/mL
[2]; male, Sprague-Dawley, rat, plasma, po, 1000 mg/kg, single oral 1000 mg/kg (Group 4), one outlier excluded, individual rats 459, 460
  AUC(0-inf): 5880 ng·h/mL
[2]; male, Sprague-Dawley, rat, plasma, po, 1000 mg/kg, Cmax, single oral 1000 mg/kg (Group 4), one outlier excluded, individual rats 459, 460, 461
  Cmax: 365 ng/mL
[2]; male, Sprague-Dawley, rat, plasma, po, 1000 mg/kg, Plasma concentration, male SD rat, single oral 1000 mg/kg (Group 4), all data included, 6 hr, individual rats 459, 460, 461
  concentration at 6 h: 365 ng/mL
[2]; male, Sprague-Dawley, rat, plasma, po, 1000 mg/kg, Plasma concentration, male SD rat, single oral 1000 mg/kg (Group 4), one outlier excluded, 4 hr, mean
  concentration at 4 hr: 381 ng/mL
[2]; male, Sprague-Dawley, rat, plasma, po, 1000 mg/kg, Plasma concentration, male SD rat, single oral 1000 mg/kg (Group 4), one outlier excluded, 6 hr, individual rats 459, 460, 461
  concentration at 6 hr: 365 ng/mL
[3]; 125 mg/kg
  C24h plasma concentration: 290 ng/mL
[3]; 250 mg/kg
  C24h plasma concentration: 194 ng/mL
[3]; po, 250 mg/kg
  Lung concentration: 784 ng/mL
  Plasma concentration: 194 ng/mL
[4]; 150 mg dose
  mean t1/2: 15.8 h
[4]; 200 mg dose
  mean t1/2: 26 h
[4]; in vivo
  Clearance: 4 to 10.5 h⁻¹ kg⁻¹
  time to steady-state plasma levels: 4 to 5 days
In vivo; C24 h lung concentrations relative to plasma concentrations (higher)
  Kp: 3 to 4
In vivo; po, 250 mg/kg, L/P Ratio
  Kp: 4.04
In vivo; po, L/P Ratio
  Kp: 4.03
